Assay: storage of the anhydrous form at controlled relative humidity (preservation of anhydrous state)
Type: physicochemical
Conditions: coarse crystals, r.h. = relative humidity
Experimental: Alternatively to the drying step at elevated temperature under reduced pressure described above, the anhydrous form may also be prepared by storing the crystalline tiotropium bromide monohydrate over a drying agent, preferably over dried silica gel at ambient temperature for a period of 12 to 96 hours, preferably 18 to 72 hours, most preferably at least 24 hours. The anhydrous form thus obtained should be stored more or less dry, depending on the particle size, to preserve its anhydrous state. In the case of coarse crystals of anhydrous tiotropium bromide, which may be prepared for example as described above, storage at <75% r.h. (relative humidity) is sufficient to maintain the anhydrous state. In the micronised state, i.e. where the material has a much larger surface area, water may even be absorbed at lower humidity levels. In order to maintain the anhydrous form in the micronised state, it is therefore advisable to store the anhydrous form of tiotropium bromide over dried silica gel until it is further processed to form the desired inhalable powder containing suitable excipients (e.g. lactose) in addition to tiotropium bromide.

Structure (SMILES): C[N+]1(C)C2C[C@H](OC(=O)C(O)(c3cccs3)c3cccs3)CC1[C@H]1OC21 (stereo partly drawn) [anhydrous tiotropium bromide, (1α,2β,4β,5α,7β)-7-[(hydroxydi-2-thienylacetyl)oxy]-9,9-dimethyl-3-oxa-9-azoniatricyclo[3.3.1.0^2,4]nonane-bromide]
- relative humidity of storage sufficient to maintain the anhydrous state: < 75 % r.h.
